# Like-named read-outs stand apart in the source and are kept apart here.
# How the values were obtained:
# [1] = PK in tumor-bearing nude mice after i.v. C118P; format: in vivo, nude mice (BALB/cA) implanted with NCI-H460 tumor; settings: nude mice, i.v. C118P 75 mg/kg, n = 4; for half-life: 75 mg/kg; for concentration at 2 min: read-out: C2min
# Procedure: The nude mice (BALB/cA) implanted with NCI-H460 tumor were provided by Shanghai Institute of Materia Medica. A total of 36 mice were divided into 9 groups with four animals in each group. After fasting overnight with free access to water, the mice were treated with 75 mg/kg C118P by i.v. The blood samples were collected at 2, 10, 20, 40 min, 1, 2, 4, 8, 12 h after treatment and the mice were anaesthetized and decapitated to obtain the blood and tumor tissue. Blood, brain, muscle, ovary, and lung from mice in the PK study were collected at 10 min, 1, 4, and 12 h. Tissues were cleaned by absorbent filter paper to remove the blood. Bloods were centrifuged at 10,000× g for 5 min. Each tissue (0.2 g) was homogenized with 2 mL water. The plasma samples and the homogenates were then processed and determined by the method described above. The concentration was determined by the calibration curve and the actual concentration was corrected by multiplying by 10 according to the dilution times.
# (§1) The area under the plasma-concentration-versus-time curve from 0 to infinite (AUC0-inf), the elimination half-life (t1/2), the systemic plasma clearance (CL) and the volume of distribution (V) were calculated by non-compartmental analysis with WinNonlin software v6.3 (Pharsight Corporation, St. Louis, MO 63144, USA) from the plasma concentration data of C118P and C118, respectively. The instantaneous concentrations after intravenous to rats (C30s) or dogs (C2min) were obtained directly from the observed data.
# [2] = Plasma protein binding by ultrafiltration; format: in vitro ADME, beagle dogs; settings: beagle, dog plasma, read-out: fu (fraction unbound);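 note: fu expressed in percent not as a fraction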
# Procedure: Both C118P and C118 were stable in the plasma with EDTA as anticoagulant. The non-specific binding to the ultrafilter membrane was negligible. The extent of plasma protein binding was reported as a fraction unbound (fu, %) value which was calculated using the formula fu = PF/TC × 100%, where TC is test compound (C118P or C118) concentration in sample before ultrafiltration, and PF is the test compound concentration in the ultrafiltrate (Table 1).
# Plasma protein binding of C118P and C118 were determined by ultrafiltration at four concentrations (C118P: 400, 4000, 40,000, and 400,000 ng/mL, C118: 20, 200, 2000, and 20,000 ng/mL) in pooled plasma from Sprague-Dawley rats, beagle dogs, and humans. Stock solutions of C118P and C118 dissolved in methanol were diluted with blank plasma to achieve the test concentrations (the methanol volume is less than 10% of the plasma). The plasma was incubated for 1 h in a water bath at 37 °C. The total concentration of C118P and C118 of spiked plasma (TC) was analyzed by previously described methods. Ultrafiltration was performed with activated high speed centrifugal tubes (Millipore, Burlington, MA, USA). Plasma samples (0.4 mL) were added to the upper layer of the high speed centrifugal tubes, and then centrifuged at 12,000 g for 10 min. The concentration of unbound C118P and C118 in filtrate (PF) was similarly determined by the previously described methods. The percentage of free fraction (fu) of C118P and C118 was calculated as follows: fu = (PF/TC) × 100%.
# [3] = Metabolic stability in liver microsomes; format: in vitro ADME, dog; settings: dog microsomes (Figure S1)
# Procedure: (§2) The in vitro metabolic stability of C118P and C118 were estimated in mice, rat, dog, monkey, and human liver microsomes (Research Institute for Liver Diseases Co. Ltd (Shanghai, China)). The incubation mixture contains C118P or C118, NADP (1.0 mM), G-6-P (10 mM), PDH (2 units/mL), MgCl2 (10 mM), and liver microsomes (mice, rats, dogs, monkeys, or humans, 1.0 mg protein/mL) in phosphate buffer. A total of 200 μL of the mixture was removed and quenched with 600 μL acetonitrile in an ice bath at 0, 15, 30, 60, 120, and 240 min after the addition of NADPH.
# (§3) CLint, in vitro (the in vitro intrinsic clearance, Equation (1)) was calculated from the t1/2 of C118 disappearance, where Cprotein is the protein concentration during the incubation, and t1/2 was determined by the slope (k) of the log-linear regression analysis of the concentration versus time profiles; thus, t1/2 = ln2/k. […] The in vivo hepatic clearance (CLH, Equation (3)) was then calculated by using CLint and hepatic blood flow, Q ([…] mL·min^−1·kg^−1 in rats, dogs, monkey, and humans, respectively), in the well-stirred liver model disregarding all binding. The hepatic extraction ratio was calculated as CLH divided by Q. CLint, in vitro = (0.693/t1/2) × (1/Cprotein)(1) CLint = CLint, in vitro × (mg protein/g liver weight) × (gliver weight/kg body weight)(2) CLH = (Q × CLint)/(Q + CLint)(3)
# [4] = Metabolic stability in liver microsomes; format: in vitro ADME, mice; settings: mice liver microsomes (Figure S1)
# Procedure: as §2, §3
# [5] = PK in rats after i.v. C118P; format: in vivo, SD rats; settings: rats, plasma, n = 6; for AUC(0-inf) / half-life / clearance / concentration at 30 s: both sexes, rat, in vivo; for AUC(0-inf) / half-life / clearance: iv; for clearance: read-out: CL (converted); for concentration at 30 s: read-out: C2min (C30s for Rat)
# Procedure: The SD rats were supplied by the medical animal experiment center of Chinese People’s Liberation Army Nanjing military region. Twenty-four rats (210–300 g) with half males and half females were divided randomly into four groups. C118P was dissolved in saline to achieve different concentrations for intravenous administration. After fasting overnight, the rats were administered with a single intravenous dose of 5, 10, 20, or 50 mg/kg C118P. Blood samples (approximately 200 μL) were collected in EDTA-coated tubes pre-dose (0), and 30s, 2, 5, 10, 20, 40 min, 1, 2, 4, 8, 12 and 24 h post dose. Plasma was prepared by centrifugation at 8000 rpm for 5 min, and the plasma samples were then prepared and determined by the method described above.
# as §1
# [6] = Sprague-Dawley, i.v. C118P 10 mg/kg
smiles,measurement,setting,value
COc1cc(OC)cc(-c2nc[nH]c2-c2ccc(OC)c(OP(=O)([O-])[O-])c2)c1.[Na+].[Na+] [C118P],half-life,"[1]; BALB/cA nude, mouse, in vivo, iv, plasma",118 ± 64.2 min
same,half-life,"[1]; BALB/cA nude, mouse, in vivo, iv, tumor",69.6 ± 45.6 min
same,AUC(0-inf),"[1]; BALB/cA nude, mouse, in vivo, iv, plasma, read-out: AUC0-inf",13500 ng·h/mL
same,clearance,"[1]; BALB/cA nude, mouse, in vivo, iv, plasma, read-out: CL (converted)",96.9 mL/min/kg
same,concentration at 2 min,"[1]; BALB/cA nude, mouse, in vivo, plasma",106 µg/mL
same,concentration at 2 min,"[1]; BALB/cA nude, mouse, in vivo, tumor",292 ± 80.2 ng/g
same,V,[1]; plasma,"15,404.8 ± 7499.6 mL/kg"
same,AUC(0-inf),[1]; tumor,217.7 ± 9.3 ng·h/g
same,"fraction unbound at 1 h, 400 ng/mL",[2]; C118P 400 ng/mL,0.019 ± 0.001
same,"fraction unbound at 1 h, 4000 ng/mL",[2]; C118P 4000 ng/mL,0.021 ± 0.001
same,"fraction unbound at 1 h, 40000 ng/mL","[2]; C118P 40,000 ng/mL",0.027 ± 0.002
same,"fraction unbound at 1 h, 400000 ng/mL","[2]; C118P 400,000 ng/mL",0.086 ± 0.003
same,stability in liver microsomes,[3],not stable
same,stability in liver microsomes,[4],quite stable
same,AUC(0-inf),"[5]; SD, i.v. C118P 5 mg/kg",5740 ± 766 ng·h/mL
same,half-life,"[5]; SD, i.v. C118P 5 mg/kg",14.4 ± 3 min
same,clearance,"[5]; SD, i.v. C118P 5 mg/kg",14.7 mL/min/kg
same,clearance,"[5]; SD, i.v. C118P 10 mg/kg",16.4 mL/min/kg
same,AUC(0-inf),"[5]; SD, i.v. C118P 20 mg/kg",18700 ng·h/mL
same,half-life,"[5]; SD, i.v. C118P 20 mg/kg",22.8 ± 6 min
same,clearance,"[5]; SD, i.v. C118P 20 mg/kg",18.5 mL/min/kg
same,AUC(0-inf),"[5]; SD, i.v. C118P 50 mg/kg",38900 ng·h/mL
same,half-life,"[5]; SD, i.v. C118P 50 mg/kg",48 ± 34.2 min
same,clearance,"[5]; SD, i.v. C118P 50 mg/kg",22.3 mL/min/kg
same,concentration at 30 s,"[5]; SD, i.v. C118P 5 mg/kg",75.6 µg/mL
same,concentration at 30 s,"[5]; SD, i.v. C118P 20 mg/kg",219 µg/mL
same,concentration at 30 s,"[5]; SD, i.v. C118P 50 mg/kg",373 µg/mL
same,AUC(0-inf),[5]; [6],10400 ng·h/mL
same,half-life,[5]; [6],12.6 ± 3 min
same,concentration at 30 s,[5]; [6],134 µg/mL
same,V,[5]; i.v. C118P 5 mg/kg,0.3025 ± 0.0611 L/kg
same,V,[5]; i.v. C118P 10 mg/kg,0.2994 ± 0.0676 L/kg
same,V,[5]; i.v. C118P 20 mg/kg,0.5826 ± 0.1142 L/kg
same,V,[5]; i.v. C118P 50 mg/kg,1.5022 ± 1.0658 L/kg
